Columns and labels:
[1] = Topical podophyllotoxin on sore vestibular (Bartholin's) glands in vulvodynia patients; assay type: in vivo, human
From the text: In the treatment, the vagina is first washed with a 3% acetum solution. The vulva, especially Batrholin's glands are examined by means of colposcopy. A second object is a slightly uneven, netlike area located obliquely behind, at the sides of the outer mouth of the urethra. Sometimes small hyperemetic cavities, small vestibular glands are found in the vulvar region, which are not sore in a healthy person. In vulvodynia they are typically very tender to touch and red, ligulate and with embossed edges. In vulvodynia Bartholin's gland orifices are sometimes closed. These points often start bleeding at palpation.
In accordance with the invention, the sore glands are pencilled with podophyllotoxin. Any commonly used vaginal ointment is applied on the pencilled area. The treatment is repeated twice if necessary at an interval of about one month. The treatment is usually not effective at once, however, in the course of typically two weeks there is no more pain.
The gland orifices were pencilled with a 5% podophyllotoxin solution. The pain during intercourse disappeared at the end of a couple of weeks. After about two years the pain recurred. Podophyllotoxin was applied to the gland orifices anew. At the end of two months the lefthand, still tender gland orifice was pencilled once more.
The patient had undergone hysterectomy because of prolapse and extended cervix. However, the prolapse recurred (enterocele), and was resectioned from below. After the surgery the patient suffered from vaginal pain, which was stronger on the left side. There was no inflammation, the pain persisted. A gynecologist made repeated examinations, found nothing wrong and consulted a neurologist, who made the diagnosis inexplicable postoperative pain. […] Podophyllotoxin was applied twice at one month's interval and once more the following day.
(§1) The patient hade undergone hysterectomy, suffered from pain, a small muscular tumour and adhesions after endometriosis. The patient had suffered from incontinence for about a year. There had been no distinct inflammations. […] They were pencilled. Nevertheless, after about six months the patient returned to the clinic because of pain in the lower abdomen, the back and a sting in the urinary bladder. The sore vaginal peaks were pencilled with podophyllotoxin once more.
A total of 151 patients were treated over a period of two years, and among these 75% had typical vulvodynia symptoms and the remainder atypical other symptoms, such as disorders of the urinary tracts, vaginal dryness, itching and recurrent candidosis. However, intense tenderness to touch of the vestibular glands was typical for all of the patients.
All of the patients were treated in the same way: first the vagina was washed with a 3% solution of acetum, the sore glands were treated with podophyllotoxin and vaginal ointment was applied on this. 46 patients were treated only once and 6 patients were treated 10 times, the patients were treated 2.6 times on the average.

[2] = Topical podophyllotoxin on vaginal peaks in patients with post-hysterectomic pain; assay type: in vivo, human
Experimental: In accordance with the invention podophyllotoxin can also be used for intense tenderness to touch and palpation in the upper vaginal corners with post-hysterectomic pain, sometimes also with bleed in. After the rinse with acetum the vaginal corners are treated with podophyllotoxin, and vaginal ointment can be applied on the treated areas if necessary. The treatment can be repeated at least three times if necessary, at intervals of either one day or one month.
At the end of about three years the patient returned to the gynecologic outpatient clinic and complained about a strong continual pain in the lower part of the abdomen and a pushing feeling in the rectum. […] The vaginal peaks were treated locally with podophyllotoxin three times at two days' intervals. Especially the right corner was very tender to palpation. After the third treatment there was no more pain.
as §1
Post-hysterectomic pain was examined in 26 patients. The vagina was first washed with a 3% acetum solution and then the vaginal peaks were pencilled with podophyllotoxin. A vaginal ointment was used occasionally on the pencilled areas. The treatment was repeated 1 to 3 times at about one month's intervals.

COc1cc([C@@H]2c3cc4c(cc3[C@H](O)[C@H]3COC(=O)[C@H]23)OCO4)cc(OC)c1OC [podophyllotoxin]
pain during intercourse after treatment ([1]; Example 1, one patient, Bartholin's gland orifices pencilled with 5% podophyllotoxin solution, at the end of a couple of weeks): disappeared | pain after repeat treatment of recurrence ([1]; Example 1, recurrence after about two years, gland orifices pencilled anew, left orifice once more after two months, in the course of a couple of weeks): disappeared completely | symptoms after treatment ([1]; Example 2, one patient, postoperative vaginal pain, left Bartholin's gland and right side of urethra, applied twice at one month's interval and once more the following day): free of symptoms | pain in the glands after treatment ([1]; Example 3, one patient, sore glands in the introitus pencilled once, after one month): no pain in the glands | number of patients free of symptoms ([1]; Example 4, 151 patients treated, 2.6 times on average, about two weeks after the treatment): about one hundred | number of patients considered to have probably recovered ([1]; Example 4, 151 patients treated, follow-up maximum more than 5 years): 40 patients | immediate effect on pain ([1]; directly after treatment, before relief in the course of a couple of weeks): increases the pain | pain after treatment (general statement) ([1]; sore glands pencilled, repeated twice if necessary at about one month interval, in the course of typically two weeks): no more pain | pain at small red cavities of the front part of the vulva ([1]; vestibulitis type condition): relieved | pain after treatment of vaginal peaks ([2]; Example 2, same patient about three years later, vaginal peaks treated three times at two days' intervals, after the third treatment): no more pain | incontinence after treatment of vaginal peaks ([2]; Example 3, control one month after last pencilling of vaginal peaks): disappeared | patient's state at control after treatment of vaginal peaks ([2]; Example 3, sore vaginal peaks pencilled again about six months later, control one month later): completely recovered | number of patients remaining free of symptoms during the control period ([2]; Example 5, 26 patients, vaginal peaks pencilled 1 to 3 times at about one month's intervals, maximum control period 9 months): 17 patients | results of treatment (general statement) ([2]; upper vaginal corners treated, repeated at least three times if necessary): extremely good
